Experimental data as given in PubChem BioAssay (NCI).
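Five concentrations, 48 hours, 96-well plates. At the GI50, growth is halved. TGI denotes the concentration required for complete inhibition of growth.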

Columns and labels:
Assay in all cases: NCI-60 cell line screen, 48 h
ACHN renal = system: ACHN renal
MDA-MB-231 breast = system: MDA-MB-231 breast
SK-MEL-5 melanoma = system: SK-MEL-5 melanoma
HS 578T breast = system: HS 578T breast
IGROV1 ovarian = system: IGROV1 ovarian
COLO 205 colon = system: COLO 205 colon
SNB-19 CNS = system: SNB-19 CNS
K-562 leukemia = system: K-562 leukemia
HCC-2998 colon = system: HCC-2998 colon
SF-268 CNS = system: SF-268 CNS
SF-539 CNS = system: SF-539 CNS
MCF7 breast = system: MCF7 breast

Row | SMILES | TGI (ACHN renal) [µM] | TGI (MDA-MB-231 breast) [µM] | TGI (SK-MEL-5 melanoma) [µM] | TGI (HS 578T breast) [µM] | TGI (IGROV1 ovarian) [µM] | TGI (COLO 205 colon) [µM] | TGI (SNB-19 CNS) [µM] | TGI (K-562 leukemia) [µM] | TGI (HCC-2998 colon) [µM] | TGI (SF-268 CNS) [µM] | TGI (SF-539 CNS) [µM] | TGI (MCF7 breast) [µM] | GI50 (SK-MEL-5 melanoma) [µM] | GI50 (K-562 leukemia) [µM] | GI50 (MCF7 breast) [µM]
1 | Cc1nn(C(=O)c2ccc(Cl)cc2)c2c1C(c1ccc(Cl)cc1)SC(N)=N2 (stereo not given) | > 10 | > 10 | > 10 | > 10 | > 10 | > 10 | > 10 | > 10 | > 10 | > 10 | > 10 | > 10 | – | – | –
2 | CC(=O)N1N=C(c2ccc3ccccc3c2O)CC1c1ccc(N(C)C)cc1 (stereo not given) | > 100 | > 100 | > 100 | > 100 | > 100 | > 100 | – | > 100 | > 100 | > 100 | > 100 | > 100 | – | – | –
3 | C=CCN1C(=O)CS/C1=N\NC(=O)CSc1nc2ccccc2c(=O)n1CC | > 100 | > 100 | > 100 | > 100 | > 100 | > 100 | > 100 | > 100 | > 100 | > 100 | > 100 | > 100 | – | – | –
4 | CC(C)CC1NC(=O)CCC(NC(=O)C(Cc2ccc(O)cc2)NC(=O)OCc2ccccc2)C(=O)NC(Cc2ccccc2)C(=O)NC(Cc2ccccc2)NC1=O (stereo not given) | > 100 | > 100 | > 100 | > 100 | > 100 | > 100 | > 100 | > 100 | > 100 | > 100 | > 100 | > 100 | – | – | –
5 | Cn1c(N)c(/C=C/C(=O)Oc2ccccc2)c(=O)n(C)c1=O | > 100 | > 100 | > 100 | > 100 | > 100 | > 100 | > 100 | > 100 | > 100 | > 100 | > 100 | > 100 | – | – | –
6 | Cc1ccc(O)c(C(c2cc(C)ccc2O)c2cc([N+](=O)[O-])ccc2O)c1 | 27.1 | 22.3 | > 100 | 37.9 | 24.4 | 45.9 | – | > 100 | 25.5 | 24.6 | 33.9 | 33.8 | – | – | –
7 | c1cc2c3ccsc3c3sccc3c2s1 | > 100 | > 100 | > 100 | 71.8 | > 100 | > 100 | – | > 100 | > 100 | > 100 | > 100 | > 100 | – | – | –
8 | N#CC(C#N)=Cn1c(=S)[nH]c2ccc([N+](=O)[O-])cc21 | > 100 | > 100 | > 100 | > 100 | > 100 | > 100 | > 100 | > 100 | > 100 | > 100 | > 100 | > 100 | – | – | –
9 | NC(=O)NC(=O)c1cccc(NC(=O)CCl)c1 | 12.9 | 8.38 | 2.07 | > 21.7 | 12.7 | 2.2 | > 26.1 | > 43.4 | 1.81 | 8.29 | 1.5 | 9.32 | – | – | –
10 | CC12CCC(=O)[C@@]1(C)CCCC2O (stereo not given in full) | > 100 | > 100 | > 100 | > 100 | > 100 | > 100 | > 100 | > 100 | > 100 | > 100 | > 100 | > 100 | – | – | –
11 | COc1ccc(NC(/C(C(=O)C(=O)/C=C(\O)c2ccccc2)=C(\O)c2ccccc2)c2ccc(OC)cc2)cc1 (stereo not given) | > 100 | > 100 | > 100 | > 100 | > 100 | > 100 | > 100 | > 100 | 62.3 | > 100 | > 100 | > 100 | – | – | –
12 | O=Cc1ccc(-c2ccc(S(=O)(=O)O)cc2)o1 | > 100 | > 100 | > 100 | > 100 | > 100 | > 100 | > 100 | > 100 | > 100 | > 100 | > 100 | > 100 | – | – | –
13 | CCOC(=O)c1nc2cc(F)cc(F)c2[nH]c1=O | > 100 | > 100 | > 100 | > 100 | > 100 | > 100 | > 100 | > 100 | > 100 | > 100 | > 100 | > 100 | – | – | –
14 | CCOC(=O)c1csc(-c2cn(C)c3c2C(=O)C(OC)=CC3=O)n1 | > 100 | 57.8 | 12.7 | > 58.8 | > 100 | > 89.6 | > 100 | > 100 | > 100 | > 100 | > 82.9 | 69.8 | – | – | –
15 | Oc1cccc2ccc(Br)nc12 | > 100 | > 100 | > 100 | > 100 | > 100 | > 100 | > 100 | > 100 | > 100 | > 100 | > 100 | > 100 | – | – | –
16 | COc1ccc2[nH]c3c(O)c(-c4c(C)cc5c([nH]c6ccc(OC)cc65)c4O)c(C)cc3c2c1 | 8.15 | 10.8 | 8.18 | 11.5 | 8.04 | – | 8.72 | 8.13 | 6.99 | 8.06 | 8.81 | 8.43 | 4.34 | 4.04 | 4.49
17 | C1=Cc2cccc3occ(c23)C=C1 | > 100 | > 100 | > 100 | > 100 | > 100 | 90.7 | > 100 | 40.1 | > 100 | > 100 | > 100 | > 100 | – | – | –
18 | O=c1[nH]c(=O)n(C2CC(O)C(COP(=O)(OCC(Cl)(Cl)Cl)OCC(Cl)(Cl)Cl)O2)cc1F (stereo not given) | > 100 | > 100 | > 100 | > 100 | > 100 | > 100 | > 100 | > 100 | 1.62 | > 100 | – | > 100 | – | – | –
19 | COc1cc(/C=N/n2c(C)n[nH]c2=O)cc(OC)c1OC | > 100 | > 100 | – | 49.7 | – | > 100 | > 100 | > 100 | > 100 | > 100 | > 100 | > 100 | – | – | –
20 | O=C(CCN1CCCC1)c1ccc(Oc2ccc(F)cc2)cc1 | > 100 | > 100 | > 100 | > 100 | > 100 | 56.7 | > 100 | > 100 | > 100 | > 100 | > 100 | 32.3 | – | – | –
21 | C[C@H]1S[C@H](c2c(F)cccc2F)n2c1nc1ccccc12 | > 100 | > 100 | 45.3 | > 100 | > 100 | > 100 | > 100 | > 100 | > 100 | > 100 | – | > 100 | – | – | –
22 | Cc1ccc(CN2CCN(Cc3ccc(C)o3)C(C)C2)o1 (stereo not given) | > 100 | > 100 | > 100 | > 100 | > 100 | > 100 | > 100 | > 100 | > 100 | > 100 | > 100 | > 100 | – | – | –
23 | Cc1cc(S(=O)(=O)NC2=NCC(C)(C)CN2)c(S)cc1Cl | 71.6 | > 100 | 33.7 | 87.6 | > 100 | > 100 | > 100 | 80.5 | > 100 | > 100 | > 100 | > 100 | – | – | –
24 | c1ccc(COC[C@H]2C3OCC([C@H](OCc4ccccc4)[C@H]3OCc3ccccc3)N2Cc2ccccc2)cc1 (stereo not given in full) | > 100 | > 100 | > 100 | > 100 | > 100 | > 100 | > 100 | > 83 | > 100 | > 100 | > 100 | > 100 | – | – | –
25 | COC1(OC)C2C=CC1C([C@](C)(N)CO)C2 (stereo not given in full) | > 100 | > 100 | > 100 | > 100 | > 100 | > 100 | > 100 | > 100 | > 100 | > 100 | > 100 | > 100 | – | – | –
26 | COC1C(=O)N(SC)C1c1ccccc1Cl (stereo not given) | 33.9 | 87.3 | > 100 | > 100 | 38.6 | > 100 | > 100 | 66.2 | 28.8 | > 100 | 35.2 | 43 | – | – | –
27 | Cc1cnc2[nH]c(-c3ccc(Cl)cc3)cc(=O)c2c1 | > 100 | > 19.9 | > 100 | > 100 | > 100 | > 100 | > 100 | 19.8 | 70.1 | > 100 | 6.81 | > 72.5 | – | – | –
28 | COc1cccc(CCn2c(N)c(C#N)c3ccc([N+](=O)[O-])cc3c2=O)c1 | > 46.4 | > 46.4 | > 100 | > 46.4 | > 31.6 | > 100 | > 100 | 11.6 | > 46.4 | > 46.4 | – | > 31.6 | – | – | –
